Source: ChEMBL document CHEMBL3808385, “Synthesis, antitumor evaluation and molecular docking studies of [1,2,4]triazolo[4,3-b][1,2,4,5]tetrazine derivatives” (Bioorg Med Chem Lett, 2016)

test system: MCF7; assay: Cytotoxicity against human MCF7 cells assessed as cell growth inhibition after 72 hrs by MTT assay; type: functional, cell-based; settings: MCF7, 72 h

Going from `CCCNc1nnc2nncn2n1` to `OCCNc1nnc2nncn2n1`, the IC50 falls from 19.8 µM to 11.6 µM (1.7-fold).

First: CC(C)COC(=O)N1CCN(c2nnc3nncn3n2)CC1
Second: CC(C)C(=O)N1CCN(c2nnc3nncn3n2)CC1
The IC50 of the first is 3-fold higher: 5.39 µM for the first, 1.81 µM for the second. The second is the more potent here.

Compared with `O=C(Cc1ccccc1)N1CCN(c2nnc3nncn3n2)CC1`, `c1ccc(CN2CCN(c3nnc4nncn4n3)CC2)cc1` is 8.9-fold higher in IC50: 3.08 µM for the first, 27.3 µM for the second.

`Cc1ccc(C(=O)N2CCN(c3nnc4nncn4n3)CC2)cc1` and `O=C(c1ccc(Cl)cc1)N1CCN(c2nnc3nncn3n2)CC1` are within 1.5-fold of each other in IC50: 15.9 µM for the first, 12.8 µM for the second.

Compared with `CC(C)(C)C(=O)N1CCN(c2nnc3nncn3n2)CC1`, `CCC(=O)N1CCN(c2nnc3nncn3n2)CC1` is 2.7-fold higher in IC50: 5.51 µM for the first, 14.8 µM for the second. The first is the more potent here.

Going from `CN1CCN(c2nnc3nncn3n2)CC1` to `CCCC(=O)N1CCN(c2nnc3nncn3n2)CC1`, the IC50 falls from 21.6 µM to 6.91 µM (3.1-fold).

Going from `CC(Nc1nnc2nncn2n1)C(=O)O` (stereo not drawn) to `c1nnc2nnc(N3CCCCC3)nn12`, the IC50 falls from over 100 µM to 27.2 µM.

For `O=C(C1CCCCC1)N1CCN(c2nnc3nncn3n2)CC1`, the IC50 was 1.26 µM.

test system: BeWo; assay: Cytotoxicity against human Bewo cells assessed as cell growth inhibition after 72 hrs by MTT assay; type: functional, cell-based; settings: not given

Compared with `CCCNc1nnc2nncn2n1`, `OCCNc1nnc2nncn2n1` is 4.3-fold lower in IC50: 14.3 µM for the first, 3.31 µM for the second. The second is the more potent here.

First: CC(C)COC(=O)N1CCN(c2nnc3nncn3n2)CC1
Second: CC(C)C(=O)N1CCN(c2nnc3nncn3n2)CC1
The IC50 of the first is 12-fold higher: 13.1 µM for the first, 1.09 µM for the second. The second is the more potent here.

Going from `O=C(Cc1ccccc1)N1CCN(c2nnc3nncn3n2)CC1` to `c1ccc(CN2CCN(c3nnc4nncn4n3)CC2)cc1`, the IC50 rises from 2.77 µM to 5.1 µM (1.8-fold). The first is the more potent here.

Going from `Cc1ccc(C(=O)N2CCN(c3nnc4nncn4n3)CC2)cc1` to `O=C(c1ccc(Cl)cc1)N1CCN(c2nnc3nncn3n2)CC1`, the IC50 falls from 14.3 µM to 7.51 µM (1.9-fold). The second is the more potent here.

First: CC(C)(C)C(=O)N1CCN(c2nnc3nncn3n2)CC1
Second: CCC(=O)N1CCN(c2nnc3nncn3n2)CC1
The IC50 of the first is 5.7-fold lower: 2.41 µM for the first, 13.7 µM for the second.

`CN1CCN(c2nnc3nncn3n2)CC1` and `CCCC(=O)N1CCN(c2nnc3nncn3n2)CC1` are within 1.5-fold of each other in IC50: 7.99 µM for the first, 6.73 µM for the second.

Compared with `CC(Nc1nnc2nncn2n1)C(=O)O` (stereo not drawn), `c1nnc2nnc(N3CCCCC3)nn12` is 7.6-fold lower in IC50: 82.2 µM for the first, 10.8 µM for the second.

Work on `O=C(C1CCCCC1)N1CCN(c2nnc3nncn3n2)CC1` yielded an IC50 of 1.9 µM.

biological target: T1, Hepatocyte growth factor receptor (Homo sapiens, UniProt P08581); assay: Inhibition of cMET (unknown origin) using poly(Glu-Tyr) substrate incubated for 60 mins by ELISA; settings: not given
T1 sequence (P08581 whole entry): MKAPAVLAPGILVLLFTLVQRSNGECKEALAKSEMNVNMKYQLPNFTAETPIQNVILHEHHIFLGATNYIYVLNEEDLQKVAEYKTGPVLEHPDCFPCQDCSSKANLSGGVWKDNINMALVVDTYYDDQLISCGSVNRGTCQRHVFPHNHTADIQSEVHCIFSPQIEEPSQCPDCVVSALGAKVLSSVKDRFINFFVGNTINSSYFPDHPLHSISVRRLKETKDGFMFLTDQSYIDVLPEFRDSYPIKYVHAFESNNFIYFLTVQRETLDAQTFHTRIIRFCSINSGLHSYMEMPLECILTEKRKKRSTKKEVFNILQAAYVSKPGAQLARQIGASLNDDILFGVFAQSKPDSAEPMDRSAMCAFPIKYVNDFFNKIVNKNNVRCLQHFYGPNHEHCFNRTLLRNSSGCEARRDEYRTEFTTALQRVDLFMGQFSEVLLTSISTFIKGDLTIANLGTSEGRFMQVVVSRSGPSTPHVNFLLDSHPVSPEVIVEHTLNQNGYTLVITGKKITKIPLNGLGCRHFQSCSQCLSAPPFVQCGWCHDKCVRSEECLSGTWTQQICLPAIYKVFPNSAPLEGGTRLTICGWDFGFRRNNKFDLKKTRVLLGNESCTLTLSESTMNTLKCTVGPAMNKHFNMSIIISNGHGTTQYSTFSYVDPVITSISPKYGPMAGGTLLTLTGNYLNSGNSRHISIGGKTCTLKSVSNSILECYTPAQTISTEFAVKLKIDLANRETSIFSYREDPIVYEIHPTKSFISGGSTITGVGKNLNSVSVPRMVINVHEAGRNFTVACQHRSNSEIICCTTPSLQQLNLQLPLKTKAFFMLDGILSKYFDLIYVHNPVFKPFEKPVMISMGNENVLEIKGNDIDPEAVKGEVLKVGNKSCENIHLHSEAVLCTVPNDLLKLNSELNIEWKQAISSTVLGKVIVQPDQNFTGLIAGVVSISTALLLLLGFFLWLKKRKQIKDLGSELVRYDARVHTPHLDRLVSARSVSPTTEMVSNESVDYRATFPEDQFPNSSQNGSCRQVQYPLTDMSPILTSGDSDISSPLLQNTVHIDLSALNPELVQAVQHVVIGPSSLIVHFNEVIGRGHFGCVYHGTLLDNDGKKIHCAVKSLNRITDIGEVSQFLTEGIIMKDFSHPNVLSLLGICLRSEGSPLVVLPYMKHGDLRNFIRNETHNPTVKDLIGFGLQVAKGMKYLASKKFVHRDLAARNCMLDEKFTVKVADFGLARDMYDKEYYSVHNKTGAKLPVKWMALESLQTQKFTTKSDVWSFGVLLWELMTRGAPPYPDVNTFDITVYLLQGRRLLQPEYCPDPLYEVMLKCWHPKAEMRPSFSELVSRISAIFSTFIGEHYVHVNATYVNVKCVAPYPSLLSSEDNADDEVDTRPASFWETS

`COc1ccc2c(OCc3nnc4nnc(-c5ccccc5)nn34)ccnc2c1` gave an IC50 of 0.006 µM.

biological target: T1, Hepatocyte growth factor receptor; assay: Inhibition of cMET (unknown origin) using TK substrate-biotin as substrate preincubated with compound followed by substrate addition for 40 mins measured after 1 hr by HTRF assay; settings: not given

Going from `CC(C)C(=O)N1CCN(c2nnc3nncn3n2)CC1` to `O=C(C1CCCCC1)N1CCN(c2nnc3nncn3n2)CC1`, the IC50 falls from 23.7 µM to 7.9 µM (3-fold).

test system: not listed separately; assay: Cytotoxicity against human HL60 cells assessed as cell growth inhibition after 72 hrs by MTT assay; type: functional, cell-based; settings: HL-60, 72 h

Compared with `CCCNc1nnc2nncn2n1`, `OCCNc1nnc2nncn2n1` is 3-fold higher in IC50: 15.1 µM for the first, 45.3 µM for the second. The first is the more potent here.

First: CC(C)COC(=O)N1CCN(c2nnc3nncn3n2)CC1
Second: CC(C)C(=O)N1CCN(c2nnc3nncn3n2)CC1
The IC50 of the first is 4.9-fold higher: 7.93 µM for the first, 1.61 µM for the second.

Going from `O=C(Cc1ccccc1)N1CCN(c2nnc3nncn3n2)CC1` to `c1ccc(CN2CCN(c3nnc4nncn4n3)CC2)cc1`, the IC50 rises from 1.85 µM to 14.2 µM (7.7-fold). The first is the more potent here.

`Cc1ccc(C(=O)N2CCN(c3nnc4nncn4n3)CC2)cc1` and `O=C(c1ccc(Cl)cc1)N1CCN(c2nnc3nncn3n2)CC1` are within 1.5-fold of each other in IC50: 9.31 µM for the first, 12.3 µM for the second.

Going from `CC(C)(C)C(=O)N1CCN(c2nnc3nncn3n2)CC1` to `CCC(=O)N1CCN(c2nnc3nncn3n2)CC1`, the IC50 rises from 1.38 µM to 10.1 µM (7.3-fold).

`CN1CCN(c2nnc3nncn3n2)CC1` and `CCCC(=O)N1CCN(c2nnc3nncn3n2)CC1` are within 1.5-fold of each other in IC50: 8.54 µM for the first, 9.84 µM for the second.

Going from `CC(Nc1nnc2nncn2n1)C(=O)O` (stereo not drawn) to `c1nnc2nnc(N3CCCCC3)nn12`, the IC50 falls from 74.2 µM to 23.6 µM (3.1-fold).

Work on `O=C(C1CCCCC1)N1CCN(c2nnc3nncn3n2)CC1` yielded an IC50 of 1.16 µM.
